Numbering of substitutions follows the chain as printed.
Experiments:
P2X2 F301W = target: T1, P2X2 F301W (Homo sapiens, UniProt Q9UBL9, F301W); test: Fast GCaMP-mScarletI assay in yeast, P2X2 F301W; assay type: cell-based; conditions: for Bottom, best fit value / Hillslope, best fit value / Top, best fit value: four-parameter logistic fit of ΔF/ΔT; for Bottom, best fit value / Hillslope, best fit value / Top, best fit value / EC50: n = 3; for EC50: four-parameter logistic fit, unit inferred, unit M, read-out: EC50, best fit value
T1 construct: expressed in transfected cells; host or cells: S. cerevisiae BY4741 background
T1 sequence (Q9UBL9 1-471 F301W): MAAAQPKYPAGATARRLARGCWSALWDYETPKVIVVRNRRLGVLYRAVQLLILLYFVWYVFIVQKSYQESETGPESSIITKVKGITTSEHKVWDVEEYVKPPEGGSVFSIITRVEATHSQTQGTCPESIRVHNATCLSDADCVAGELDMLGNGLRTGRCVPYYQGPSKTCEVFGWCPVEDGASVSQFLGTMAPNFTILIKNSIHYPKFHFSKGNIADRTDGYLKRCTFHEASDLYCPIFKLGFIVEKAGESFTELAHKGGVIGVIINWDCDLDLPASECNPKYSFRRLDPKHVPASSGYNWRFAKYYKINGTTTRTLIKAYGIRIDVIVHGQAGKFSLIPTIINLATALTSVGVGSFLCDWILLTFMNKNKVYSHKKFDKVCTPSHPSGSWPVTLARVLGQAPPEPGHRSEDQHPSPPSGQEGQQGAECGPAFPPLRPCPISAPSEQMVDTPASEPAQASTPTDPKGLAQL
Protocol: (§1) Figure 4 Unnatural-ligand gating in LBD libraries.A, WT P2X2 was tested with 1 mM ATP, 500 μM AMP-PNP, and compared to ATP with the broken receptor (K81C K83C) control with 1 mM ATP in the fast GCaMP-mScarletI assay (n = 3). […] B, heat map summarizing AMP-PNP signaling (ΔF/ΔT, fast GCaMP-mScarletI assay) in the site-saturation libraries (n = 2–3). All values are normalized to WT P2X2 with saturating amounts of AMP-PNP (500 μM) and therefore represent low signal (ΔF/ΔT) compared to the ATP ligand. C, F301W, F303Y, and A304W were combinatorially combined and tested against the WT, K81C K83C broken P2X2, and the single mutant clones with both ATP (1 mM, black) and AMP-PNP (500 μM, pink). […] Values here represent signal onset and are not normalized to a positive control (n = 2–5). D–K, dose response of each P2X variant with both ATP (black) and AMP-PNP (pink) in the fast GCaMP-mScarletI assay (n = 3). Statistics were performed via one-way ANOVA with Dunnett’s multiple comparisons with to the “broken” K81C K83C negative control. ∗ represents a p value ≤0.05, ∗∗ is p ≤ 0.01, and ∗∗∗ is p ≤ 0.001.
Given that the yeast-based screen seemed to recapitulate important structural and functional features of human ion channel function, we hypothesized that it might be possible to engineer new P2X2 functionalities in yeast, including new ligand specificity. […] We screened our 133-member library in the presence of 500 μM AMP-PNP (Fig. S7). While the AMP-PNP signal was uniformly low, three substitutions (F301W, F303Y, and A304W) increased signaling 2.5 to 2.8 times relative to the negative control receptor (Figs. 4B, and S7, D, F, and G). To gain a more complete view of the properties of these mutants, dose–response curves were generated with ATP and AMP-PNP (Fig. 4, D–G, and Table S2).
(§2) GCaMP assays were performed as follows. P2X2 GCaMP strains were designed with a bi-cistronic reporter, in which the GCaMP protein was followed by a 2A peptide and a mScarletI reporter ([53]). The co-translated mScarletI was designed to act as a control for plasmid loss, GCaMP breakage via nonsense mutation, and contamination. […] P2X2-GCaMP strains were cultured and induced as previously described. Samples were induced for 24 h to allow for the accumulation of the mature GCaMP protein. Cells were washed three times in 0.1 M MES/Tris buffer and resuspended with MES/Tris with supplemental calcium. Cells were loaded onto a black, clear bottom microplate and imaged on a FlexStation3 plate reader. Samples were imaged in “flex” mode. Samples were imaged for 48 s at an interval of 1.6 s. Fluorescence was measured with an excitation at 485 nm, and emission 525 nm. At the 21 s mark, 100 μl ligand solution was transferred to the cells. For strains with mScarlet, fluorescence was read with excitation 570 nm/emission 610 nm. Slopes were calculated from the last 6 points of measurement and were normalized to the positive control samples. Any replicate in which the mScarlet value was measured to be over 2 standard deviations less than the mean for that set was discarded from further analysis.
(§3) For multiple comparisons in the site-saturation screening data, One-way ANOVA with Dunnett’s multiple comparisons test was performed where every sample was compared to the “broken” negative control. Significance was plotted where ∗ represents a p value ≤0.05, ∗∗ is p ≤0.01, and ∗∗∗ is p ≤0.001. Dose–response curves were fit with nonlinear regression software using a four-parameter logistic curve. All statistics were calculated and plotted in Graphpad Prism software.

P2X2 F301W+F303Y+A304W = target: T2, P2X2 F301W+F303Y+A304W (Homo sapiens, UniProt Q9UBL9, A304W/F301W/F303Y); test: Fast GCaMP-mScarletI assay in yeast, P2X2 F301W+F303Y+A304W; assay type: cell-based; conditions: for Bottom, best fit value / Hillslope, best fit value / Top, best fit value: four-parameter logistic fit of ΔF/ΔT
T2 construct: expressed in transfected cells; host or cells: S. cerevisiae BY4741 background
T2 sequence (Q9UBL9 1-471 F301W/F303Y/A304W): T1 sequence (Q9UBL9 1-471 F301W) with F303Y, A304W
Protocol: as §1
The combined mutations were synergistic, with F303Y + A304W having a predicted additive effect of ca. Ten-fold, relative to the 73-fold seen.
as §2, §3

activity compared to the wild-type (P2X2 F301W; AMP-PNP dose-response, Fig. 4D-G, Table S2)	improvement compared to the WT channel (rate of signal onset ΔF/ΔT) (P2X2 F301W+F303Y+A304W; at 500 μM AMP-PNP)	Compound	Bottom, best fit value (P2X2 F301W)	Hillslope, best fit value (P2X2 F301W)	Top, best fit value (P2X2 F301W)	EC50 (P2X2 F301W)	Bottom, best fit value (P2X2 F301W+F303Y+A304W; n = 3)	Hillslope, best fit value (P2X2 F301W+F303Y+A304W; n = 3)	Top, best fit value (P2X2 F301W+F303Y+A304W; n = 3)	EC50 (P2X2 F301W+F303Y+A304W; four-parameter logistic fit, n = 3, unit inferred, unit M, read-out: EC50, best fit value)
5.28 fold	24 fold	Nc1ncnc2c1ncn2[C@@H]1O[C@H](COP(=O)(O)OP(=O)(O)NP(=O)(O)O)[C@@H](O)[C@H]1O [AMP-PNP]	0.4523	2.135	5.973	214 µM	-0.1127	1.945	97.49	–
–	–	Nc1ncnc2c1ncn2[C@@H]1O[C@H](COP(=O)(O)OP(=O)(O)OP(=O)(O)O)[C@@H](O)[C@H]1O [ATP]	-0.0044	0.94	37.70	5.04 µM	0.79	2.37	148.40	8.88 µM

— publication PMC11063903, “Engineering a human P2X2 receptor with altered ligand selectivity in yeast” (The Journal of Biological Chemistry, 2024)
